Values quoted from earlier work as cited in PubChem BioAssay AID1259409 (Chemical Carcinogenesis Research Information System (CCRIS), 2018).

System: rodent chemically induced tumor inhibition, incidence and multiplicity
Assay: CCRIS tumor inhibitor studies

Structure (SMILES): Cc1cc(C(C)(C)C)c(O)c(C(C)(C)C)c1
- tumour outcome (control, treated, inhibition, significance) (Carcinogen: 2-ACETYLAMINOFLUORENE, 53-96-3, Dose [Inhibitor]: 0, 3000 PPM IN DIET CONCURRENTLY WITH CARCINOGEN FOR STUDY DURATION (STUDY DURATION: 76 WK), Route [Inhibitor]: ORAL, Species: RAT, Strain/Sex: F344/MALE, Target Tissue: Type of Lesion: LIVER: HEPATOCELLULAR TUMOR, Dose [Carcinogen]: 50 PPM IN DIET FOR 76 WK): 20/20 (100%), 18/18 (100%), 0%, not calculated
- outcome (Carcinogen: 2-ACETYLAMINOFLUORENE, 53-96-3, Dose [Inhibitor]: 0, 6000 PPM IN DIET CONCURRENTLY WITH CARCINOGEN FOR STUDY DURATION (STUDY DURATION: 76 WK), Route [Inhibitor]: ORAL, Species: RAT, Strain/Sex: F344/MALE, Target Tissue: Type of Lesion: LIVER: HEPATOCELLULAR CARCINOMA, Dose [Carcinogen]: 50 PPM IN DIET FOR 76 WK): 4.8, 0.7, 85%, p<0.05
- tumour outcome (control, treated, inhibition, significance) (Carcinogen: 2-ACETYLAMINOFLUORENE, 53-96-3, Dose [Inhibitor]: 0, 6000 PPM IN DIET CONCURRENTLY WITH CARCINOGEN FOR STUDY DURATION (STUDY DURATION: 76 WK), Route [Inhibitor]: ORAL, Species: RAT, Strain/Sex: F344/MALE, Target Tissue: Type of Lesion: LIVER: HEPATOCELLULAR TUMOR, Dose [Carcinogen]: 50 PPM IN DIET FOR 76 WK): 20/20 (100%), 19/19 (100%), 0%, not calculated
- tumour outcome (control, treated, inhibition, significance) (Carcinogen: 7,12-DIMETHYLBENZ(A)ANTHRACENE, 57-97-6, Dose [Inhibitor]: 0.3% IN DIET FROM WEANING ONWARD (STUDY DURATION: 6 MO AFTER CARCINOGEN ADMINISTRATION), Route [Inhibitor]: ORAL, Species: RAT, Strain/Sex: SPRAGUE-DAWLEY/FEMALE, Target Tissue: Type of Lesion: MAMMARY GLAND: ADENOCARCINOMA, Dose [Carcinogen]: 10 MG/RAT IN 1 ML STRIPPED CORN OIL, SINGLE DOSE ON D 50 FOLLOWING 24 HR FASTING PERIOD, Promoter: NONE USED): 100%, 55%, 45%, not calculated
- tumour outcome (control, treated, inhibition, significance) (Carcinogen: 7,12-DIMETHYLBENZ(A)ANTHRACENE, 57-97-6, Dose [Inhibitor]: 2500 MG/KG IN DIET STARTING 1 WK AFTER CARCINOGEN AND CONTINUING FOR 30 WK (STUDY DURATION: 30 WK), Route [Inhibitor]: ORAL, Species: RAT, Strain/Sex: SPRAGUE-DAWLEY/FEMALE, Target Tissue: Type of Lesion: MAMMARY GLAND: TUMOR, Dose [Carcinogen]: 8 MG IN 1 ML SESAME OIL ADMINISTERED ONCE, Promoter: NONE USED): 88%, 68%, 23%, not significant
- tumour outcome (control, treated, inhibition, significance) (Carcinogen: 7,12-DIMETHYLBENZ(A)ANTHRACENE, 57-97-6, Dose [Inhibitor]: 5000 MG/KG IN DIET STARTING 1 WK AFTER CARCINOGEN AND CONTINUING FOR 30 WK (STUDY DURATION: 30 WK), Route [Inhibitor]: ORAL, Species: RAT, Strain/Sex: SPRAGUE-DAWLEY/FEMALE, Target Tissue: Type of Lesion: MAMMARY GLAND: TUMOR, Dose [Carcinogen]: 8 MG IN 1 ML SESAME OIL ADMINISTERED ONCE, Promoter: NONE USED): 88%, 72%, 18%, not significant
- tumour outcome (control, treated, inhibition, significance) (Carcinogen: 7,12-DIMETHYLBENZ(A)ANTHRACENE, 57-97-6, Dose [Inhibitor]: 5000 MG/KG IN DIET STARTING 2 WK BEFORE UNTIL 1 WK AFTER CARCINOGEN ADMINISTRATION (STUDY DURATION: 32 WK), Route [Inhibitor]: ORAL, Species: RAT, Strain/Sex: SPRAGUE-DAWLEY/FEMALE, Target Tissue: Type of Lesion: MAMMARY GLAND: TUMOR, Dose [Carcinogen]: 8 MG IN 1 ML SESAME OIL ADMINISTERED ONCE, Promoter: NONE USED): 88%, 52%, 41%, p<0.01
- tumour outcome (control, treated, inhibition, significance) (Carcinogen: 7,12-DIMETHYLBENZ[A]ANTHRACENE, 57-97-6, Dose [Inhibitor]: 0, 200 MG/KG BW/D FOR 3 WK BEGINNING 2 WK PRIOR TO CARCINOGEN DOSE (STUDY DURATION: 24 WK), Route [Inhibitor]: INTRAPERITONEAL, Species: RAT, Strain/Sex: SPRAGUE-DAWLEY/FEMALE, Target Tissue: Type of Lesion: MAMMARY GLAND: TUMOR, Dose [Carcinogen]: 33.3 MG/KG BW IN 0.25 ML CORN OIL ONCE AT 50 D OF AGE, Promoter: NONE USED): 91%, 56%, 38%, not calculated
- tumour outcome (control, treated, inhibition, significance) (Carcinogen: 7,12-DIMETHYLBENZ[A]ANTHRACENE, 57-97-6, Dose [Inhibitor]: 0.3% IN DIET, DAILY BEFORE, SIMULTANEOUS WITH, AND THROUGHOUT THE EXPERIMENT, HIGH POLYUNSATURATED FAT DIET (STUDY DURAT, Route [Inhibitor]: ORAL, Species: RAT, Strain/Sex: SPRAGUE-DAWLEY/FEMALE, Target Tissue: Type of Lesion: MAMMARY GLAND: PARENCHYMAL CARCINOMA, Dose [Carcinogen]: 10 MG IN 1 ML CORN OIL AT 50 D OF AGE ONCE, Promoter: NONE USED): 30/30 (100%), 16/30 (53%), 47%, not calculated
- tumour outcome (control, treated, inhibition, significance) (Carcinogen: 7,12-DIMETHYLBENZ[A]ANTHRACENE, 57-97-6, Dose [Inhibitor]: 0.3% IN DIET, DAILY BEFORE, SIMULTANEOUS WITH, AND THROUGHOUT THE EXPERIMENT, HIGH SATURATED FAT DIET (STUDY DURATION: 3, Route [Inhibitor]: ORAL, Species: RAT, Strain/Sex: SPRAGUE-DAWLEY/FEMALE, Target Tissue: Type of Lesion: MAMMARY GLAND: PARENCHYMAL CARCINOMA, Dose [Carcinogen]: 10 MG IN 1 ML CORN OIL AT 50 D OF AGE ONCE, Promoter: NONE USED): 23/30 (77%), 9/30 (30%), 60%, not calculated
- tumour outcome (control, treated, inhibition, significance) (Carcinogen: 7,12-DIMETHYLBENZ[A]ANTHRACENE, 57-97-6, Dose [Inhibitor]: 0.3% IN DIET, DAILY BEFORE, SIMULTANEOUS WITH, AND THROUGHOUT THE EXPERIMENT, LOW FAT DIET (STUDY DURATION: 32 WK), Route [Inhibitor]: ORAL, Species: RAT, Strain/Sex: SPRAGUE-DAWLEY/FEMALE, Target Tissue: Type of Lesion: MAMMARY GLAND: PARENCHYMAL CARCINOMA, Dose [Carcinogen]: 10 MG IN 1 ML CORN OIL AT 50 D OF AGE ONCE, Promoter: NONE USED): 13/30 (43%), 10/30 (33%), 23%, not calculated
- tumour outcome (control, treated, inhibition, significance) (Carcinogen: 7,12-DIMETHYLBENZ[A]ANTHRACENE, 57-97-6, Dose [Inhibitor]: 0.3% IN HIGH POLYUNSATURATED FAT DIET DAILY STARTING 29 D BEFORE CARCINOGEN TREATMENT AND CONTINUING FOR THE DURATION OF, Route [Inhibitor]: ORAL, Species: RAT, Strain/Sex: SPRAGUE-DAWLEY/FEMALE, Target Tissue: Type of Lesion: MAMMARY GLAND: ADENOCARCINOMA, Dose [Carcinogen]: 10 MG IN 1 ML STRIPPED CORN OIL ONCE AT AGE 50 D, Promoter: NONE USED): 100%, 55%, 45%, not calculated
- tumour outcome (control, treated, inhibition, significance) (Carcinogen: 7,12-DIMETHYLBENZ[A]ANTHRACENE, 57-97-6, Dose [Inhibitor]: 0.3% IN HIGH SATURATED FAT DIET DAILY STARTING 29 D BEFORE CARCINOGEN TREATMENT AND CONTINUING FOR THE DURATION OF THE S, Route [Inhibitor]: ORAL, Species: RAT, Strain/Sex: SPRAGUE-DAWLEY/FEMALE, Target Tissue: Type of Lesion: MAMMARY GLAND: ADENOCARCINOMA, Dose [Carcinogen]: 10 MG IN 1 ML STRIPPED CORN OIL ONCE AT AGE 50 D, Promoter: NONE USED): 65%, 35%, 46%, not calculated
- tumour outcome (control, treated, inhibition, significance) (Carcinogen: 7,12-DIMETHYLBENZ[A]ANTHRACENE, 57-97-6, Dose [Inhibitor]: 0.3% IN LOW FAT DIET DAILY STARTING 29 D BEFORE CARCINOGEN TREATMENT AND CONTINUING FOR THE DURATION OF THE STUDY (STUDY, Route [Inhibitor]: ORAL, Species: RAT, Strain/Sex: SPRAGUE-DAWLEY/FEMALE, Target Tissue: Type of Lesion: MAMMARY GLAND: ADENOCARCINOMA, Dose [Carcinogen]: 10 MG IN 1 ML STRIPPED CORN OIL ONCE AT AGE 50 D, Promoter: NONE USED): 35%, 25%, 29%, not calculated
- tumour outcome (control, treated, inhibition, significance) (Carcinogen: 7,12-DIMETHYLBENZ[A]ANTHRACENE, 57-97-6, Dose [Inhibitor]: 1 MG APPLIED ONCE 5 MIN BEFORE DMBA (STUDY DURATION 20 WK), Route [Inhibitor]: DERMAL, Species: MOUSE, Strain/Sex: CD-1/FEMALE, Target Tissue: Type of Lesion: SKIN: PAPILLOMA, Dose [Carcinogen]: 2.56 UG APPLIED ONCE 5 MIN AFTER INHIBITOR, Promoter: 12-O-TETRADECANOYLPHORBOL-13-ACETATE, 16561-29-8): 80%, 58%, 28%, not calculated
